According to patent US7557123B2, “Heterocyclic compound and medicinal use thereof” (Kyoto Pharmaceutical Industries, Ltd., priority 2001, dated 2009):

Assays:
male KK-A^y mice = test: Hypoglycemic and hypolipidemic activity in spontaneously diabetic KK-Ay mice; type: in vivo; conditions: 10 mg/kg/day orally for 4 consecutive days, plasma 24 hours after final administration, non-fasting, vs control group
Description: Blood was drawn under a non-fasting state from the tail vein of male KK-A^y mice, and the glucose and triglyceride levels of the plasma were measured using commercially available assay kits (glucose CII-test WAKO and triglyceride G-test WAKO, Wako Pure Chemical Industries, Ltd.). The mice were grouped (5 mice per group) into a control group and an administration group, such that the mean and standard deviation of the body weight and the plasma glucose and plasma triglyceride levels in each group were nearly the same. The test compounds (compounds of Examples 1, 2, 4, 8, 20, 22, 24, 27, 30, 33, 36, 37, 40, 45, 47, 52, 56, 58 and 64) were suspended in 5% gum arabic solution and administered (10 mg/kg/day) orally to the administration group for 4 consecutive days. The 5% gumarabic solution was orally administered to the control group. Blood was drawn under a non-fasting state from the tail vein 24 hours after the final administration and the glucose and triglyceride levels of the plasma were measured. The decrease in the plasma glucose and triglyceride levels was calculated from the following formula. Decrease (%)=[(mean of control group−mean of test compound administration group)/mean of control group]×100 Results

[1] = Solubility of the compound in water (buffer pH 7.0); type: physicochemical
Description: The pulverized test compound (compounds of Examples 2, 20, 22, 24, 27, 30, 40 or 65, 25 mg) was added to a buffer (1.0 ml, pH 7.0) and the mixture was shaken at 25° C. for 1 hr and passed through a membrane filter. The concentration of the test compound in the filtrate was measured by high performance liquid chromatography.

[2] = 25 mg in 1.0 ml buffer pH 7.0, shaken at 25° C. for 1 hr, filtrate by HPLC

Row | Compound | Decrease (%) in glucose level (male KK-A^y mice) [%] | Decrease (%) in triglyceride level (male KK-A^y mice) [%] | Solubility (mg/ml) [1, 2] | Solubility ([1]; pH 7) [mg/mL] | Solubility [1, 2] [mg/mL]
1 | CCCC#CC(=O)N1Cc2cc(OCCc3nc(/C=C/CCC)oc3C)ccc2C[C@H]1C(=O)O (stereo in doubt) [Example 4, 2-(2-hexynoyl)-7-[2-(5-methyl-2-(trans-1-penten-1-yl)oxazol-4-yl)ethoxy]-1,2,3,4-tetrahydroisoquinoline-(3S)-carboxylic acid] | 40.3 | 40.5 | – | – | –
2 | CC(C)(C)N.CC=CC=CC(=O)N1Cc2cc(OCCc3nc(/C=C/C4CCCC4)oc3C)ccc2C[C@H]1C(=O)O (stereo in doubt) [Example 22, tert-butylamine 7-{2-[2-(trans-2-cyclopentylvinyl)-5-methyloxazol-4-yl]ethoxy}-2-(2,4-hexadienoyl)-1,2,3,4-tetrahydroisoquinoline-(3S)-carboxylate] | 45.3 | 51.4 | 25 or above mg/ml | – | –
3 | CC(C)(C)N.CCCCC=CC(=O)N1Cc2cc(OCCc3nc(/C=C/CC(C)C)oc3C)ccc2C[C@H]1C(=O)O (stereo in doubt) [Example 24, tert-butylamine-2-(2-heptenoyl)-7-{2-[5-methyl-2-(4-methyl-trans-1-penten-1-yl)oxazol-4-yl]ethoxy}-1,2,3,4-tetrahydroisoquinoline-(3S)-carboxylate] | 52.8 | 50.7 | – | 18.7 | –
4 | CC(C)(C)N.CC=CC=CC(=O)N1Cc2cc(OCCc3nc(/C=C/CCCC)oc3C)ccc2C[C@H]1C(=O)O (stereo in doubt) [Example 27, tert-butylamine 2-(2,4-hexadienoyl)-7-{2-[2-(trans-1-hexen-1-yl)-5-methyloxazol-4-yl]ethoxy}-1,2,3,4-tetrahydroisoquinoline-(3S)-carboxylate] | 53.4 | 36.5 | 25 or above mg/ml | – | –
5 | CC(C)(C)N.CC=CC=CC(=O)N1Cc2cc(OCCc3nc(/C=C/CCC(C)C)oc3C)ccc2C[C@H]1C(=O)O (stereo in doubt) [Example 30, tert-butylamine 2-(2,4-hexadienoyl)-7-{2-[5-methyl-2-(5-methyl-trans-1-hexen-1-yl)oxazol-4-yl]ethoxy}-1,2,3,4-tetrahydroisoquinoline-(3S)-carboxylate] | 55.4 | 57.0 | – | – | 17.3
6 | CC(C)(C)N.CC=CC=CC(=O)N1Cc2cc(OCCc3nc(/C(C)=C/CCC)oc3C)ccc2C[C@H]1C(=O)O (stereo in doubt) [Example 33, tert-butylamine 2-(2,4-hexadienoyl)-7-(2-[5-methyl-2-(1-methyl-trans-1-penten-1-yl)oxazol-4-yl]ethoxy}-1,2,3,4-tetrahydroisoquinoline-(3S)-carboxylate] | 58.2 | 68.3 | – | – | –
7 | CC(C)(C)N.CC=CC=CC(=O)N1Cc2cc(OCCc3nc(/C(C)=C/CC)oc3C)ccc2C[C@H]1C(=O)O (stereo in doubt) [Example 36, tert-butylamine 2-(2,4-hexadienoyl)-7-{2-[5-methyl-2-(1-methyl-trans-1-buten-1-yl)oxazol-4-yl]ethoxy}-1,2,3,4-tetrahydroisoquinoline-(3S)-carboxylate] | 39.8 | 27.5 | – | – | –
8 | CCC/C=C/c1nc(CCOc2ccc3c(c2)CN(C(=O)C(F)(F)C(F)(F)F)[C@H](C(=O)O)C3)c(C)o1 (stereo in doubt) [Example 37] | 53.2 | 50.1 | – | – | –
9 | CC(C)(C)N.CC=CC=CC(=O)N1Cc2cc(OCCc3nc(/C=C/C4CCCCC4)oc3C)ccc2C[C@H]1C(=O)O (stereo in doubt) [Example 40] | 54.3 | 37.0 | – | – | 18.7
10 | CC(C)(C)N.CC=CC=CC(=O)N1Cc2cc(OCCc3nc(/C=C/CC(C)(C)C)oc3C)ccc2C[C@H]1C(=O)O (stereo in doubt) [Example 45, tert-butylamine 7-{2-[2-(4,4-dimethyl-trans-1-penten-1-yl)-5-methyloxazol-4-yl]ethoxy)-2-(2,4-hexadienoyl)-1,2,3,4-tetrahydroisoquinoline-(3S)-carboxylate] | 38.7 | 32.6 | – | – | –
11 | CC(C)(C)N.CCC/C=C/c1nc(CCOc2ccc3c(c2)CN(C(=O)C=CCC(C)C)[C@H](C(=O)O)C3)c(C)o1 (stereo in doubt) [Example 47, tert-butylamine 2-(5-methyl-2-hexenoyl)-7-(2-[5-methyl-2-(trans-1-penten-1-yl)oxazol-4-yl]ethoxy}-1,2,3,4-tetrahydroisoquinoline-(3S)-carboxylate] | 29.9 | 10.9 | – | – | –
12 | CC(C)(C)N.CCC/C=C/c1nc(CCOc2ccc3c(c2)CN(C(=O)C(F)(F)CC)[C@H](C(=O)O)C3)c(C)o1 (stereo in doubt) [Example 52, tert-butylamine 2-(2,2-difluorobutyryl)-7-{2-[5-methyl-2-(trans-1-penten-1-yl)oxazol-4-yl]ethoxy}-1,2,3,4-tetrahydroisoquinoline-(3S)-carboxylate] | 26.6 | 19.1 | – | – | –
13 | CC(C)(C)N.CC=CC=CC(=O)N1Cc2cc(OCCc3nc(/C=C/C4(C)CCCCC4)oc3C)ccc2C[C@H]1C(=O)O (stereo in doubt) [Example 56] | 21.0 | 11.9 | – | – | –
14 | C=CCCCN1Cc2cc(OCCc3nc(/C=C/CC(C)C)oc3C)ccc2C[C@H]1C(=O)O (stereo in doubt) [Example 58, 7-{2-[5-methyl-2-(4-methyl-trans-1-penten-1-yl)oxazol-4-yl]ethoxy}-2-(4-pentenyl)-1,2,3,4-tetrahydroisoquinoline-(3S)-carboxylic acid] | 25.1 | 23.2 | – | – | –
15 | C=CCCN1Cc2cc(OCCc3nc(/C=C/CC(C)C)oc3C)ccc2C[C@H]1C(=O)O (stereo in doubt) [Example 64, 2-(3-butenyl)-7-{2-[5-methyl-2-(4-methyl-trans-1-penten-1-yl)oxazol-4-yl]ethoxy}-1,2,3,4-tetrahydroisoquinoline-(3S)-carboxylic acid] | 29.4 | 25.1 | – | – | –
16 | CC(C)(C)N.CC=CC=CC(=O)N1Cc2cc(OCCc3nc(/C=C/COC)oc3C)ccc2C[C@H]1C(=O)O (stereo in doubt) [Example 65] | – | – | – | – | 20.5
17 | Cc1oc(C=Cc2ccccc2)nc1CCOc1ccc2c(c1)CN(C(=O)C(F)(F)C(F)(F)F)[C@H](C(=O)O)C2 [Example 8, 7-[2-(5-methyl-2-styryloxazol-4-yl)ethoxy]-2-pentafluoropropionyl-1,2,3,4-tetrahydroisoquinoline-(3S)-carboxylic acid] | 57.2 | 71.1 | – | – | –
